Measurements from EP2974714B1, “USE OF DERIVATIVES WITH C-O-P BONDS IN PATIENTS WITH RENAL FAILURE” (LABORATORIS SANIFIT, S.L., priority 2013, dated 2014).

Experiments:
proteins = experiment: Binding of IP6 to proteins (dialysability); assay type: in vitro ADME
[1] = In vitro affinity (adsorption) of IP6 for hydroxyapatite; assay type: binding; details: for maximum adsorption of IP6 on the HAP surface: 7.6 µM IP6 for 8 hours
Method: […] The total quantity of IP6 bound to the surface of the target (HAP) was quantified.
To characterise the behaviour of IP6 binding, the EC50 and Emax for the adsorption thereof on HAP were calculated. This was performed using a non-linear regression model (Log[agonist] vs. response - slope variable; GraphPad Prism software).

[2] = In vitro binding kinetics of IP6 to HAP; details: 130 mg HAP
Method: Experimental: 130 mg HAP was incubated (in triplicate) with 7.6 µM IP6, at 37°C, pH 7.4, for different time intervals while stirring continuously.

[3] = tested on: vitamin D-induced cardiovascular calcification in rats; experiment: Inhibition of vit D-induced (75,000 IU/kg x 5) cardiovascular calcification by intravenous IP6; assay type: in vivo, male Sprague Dawley (SD) rats
Method: Experimental: male Sprague Dawley (SD) rats were divided into 7 groups and IP6 was administered intravenously daily for 14 days at a dose of 0, 0.05, 0.1, 0.5, 1, 5 and 10 mg/kg. Calcification was induced by oral administration of 75,000 IU/kg vitamin D on treatment days 3 to 7. Samples were collected. On day 14 the aortas and hearts of the animals were collected to quantify calcification.

[4] = tested on: tissue calcification in uraemic animals; experiment: Adenine model, non-bolus-type intravascular administration; assay type: in vivo, male Wistar rats
Method: Experimental: CKD was induced in 2 groups (n=12) of male Wistar rats by oral (p.o.) treatment with adenine (600 mg/kg/day) daily for 10 days. After treatment with adenine, the rats received alpha-calcidol at a dose of 300 ng/kg (3x/week, p.o.) until day 28. From day 0 until sacrifice (day 28), the animals were treated with an intravascular infusion of 50 mg/kg IP6 or saline for 4 hours. After 28 days the aorta and heart were collected, and the tissue calcium content determined.

[5] = Calcium chelation by IP6 in vitro (calcium-selective electrode); assay type: physicochemical; details: 2.5 mM calcium in NaCl 0.15 M, pH 7.40
Method: Experimental: a 2.5 mM of calcium in NaCl 0.15 M, pH 7.40, was pipetted with increasing concentrations of IP6. The amount of free ionic calcium was measured potentiometrically using a calcium-selective electrode and a potentiometer.

cardiovascular function = experiment: Cardiovascular function after bolus-type intravenous administration in conscious dogs by telemetry; assay type: in vivo
Method: Experimental: 4 male dogs, 2 per dose, were injected with 10, 15 and 30 mg/kg. Two washout days were introduced between the different doses. The ECGs were recorded telemetrically. Blood ionic calcium concentrations were determined on different days to the ECG measurements.

[6] = HAP crystallisation induction period (synergy with other treatments); assay type: physicochemical
Method: Experimental: hydroxyapatite (HAP) was crystallised by mixing appropriate concentrations of calcium and phosphate at pH 7.4. The effect of cinacalcet and sevelamer was simulated by suitably modifying the calcium and phosphate concentrations. The induction period (time required for HAP to begin to crystallise) was recorded as the analytical signal.

[7] = i.v. dose of between 1 and 10 mg/kg daily for 14 days
[8] = intravascular infusion of 50 mg/kg for 4 hours, 28 days, adenine uraemic rats

Compound: O=P(O)(O)O[C@H]1[C@H](OP(=O)(O)O)[C@@H](OP(=O)(O)O)[C@H](OP(=O)(O)O)[C@@H](OP(=O)(O)O)[C@H]1OP(=O)(O)O [IP6, inositol hexaphosphate]
- binding of IP6 to proteins (proteins): 70-90%
- compound available to be dialysed (proteins): 10-30%
- maximum adsorption of IP6 on the HAP surface ([1]; 25 mg HAP): 6.42 mg
- EC50 ([1]; 25 mg HAP, non-linear regression): 460 nM
- EC50 ([1]; 75 mg HAP, non-linear regression): 960 nM
- EC50 ([1]; 130 mg HAP, non-linear regression): 1220 nM
- maximum adsorption of IP6 on the HAP surface ([1]; 300 mg HAP): 4.8 mg
- EC50 ([1]; 300 mg HAP, non-linear regression): 2090 nM
- IP6 concentration at saturation of adsorption on HAP ([1]; 37°C, pH 7.4): ≥ 7.6 µM
- Emax for adsorption on HAP (saturation value) ([1]; non-linear regression): 6.42 mg/g
- time at which adsorption maximum is reached ([2]; 7.6 µM IP6, 37°C, pH 7.4): 60 min
- share of maximum binding achieved ([2]; after 5 minutes, 7.6 µM IP6): Around 80%
- effect on the mineral content of the aorta and heart ([3]; i.v. 0.05 to 0.5 mg/kg daily for 14 days): did not affect
- reduction of calcification in aorta [3, 7]: up to 60%
- reduction of calcification in heart [3, 7]: ≤ 68%
- reduction of plasma IP6 levels by the end of the experiment ([4]; due to high metabolic rate, 50 mg/kg infusion, uraemic rats): 90%
- reduction in average calcification in the aorta [4, 8]: 80%
- reduction in average calcification in the heart [4, 8]: 85%
- IP6 concentration above which ionic calcium chelation is significant [5]: above 379 µM
- IP6 concentration at which chelation saturates [5]: 3788 µM
- EC50 ([5]; read-out: EC50 of ionic calcium chelation): 539000 nM
- dose above which mild tachycardia and prolonged QTc interval were observed (cardiovascular function; i.v. bolus): above 15 mg/kg
- dose above which tachycardia and QTc prolongation become significant (cardiovascular function; i.v. bolus): above 30 mg/kg
- effects on ECG parameters or ionic calcium concentrations (cardiovascular function; i.v. bolus 10 mg/kg): no significant effects
- decrease in ionic calcium (cardiovascular function; i.v. bolus, correlated with the prolonged QTc interval): 30%
- induction time (time required for HAP to begin to crystallise) ([6]; 11.4 µM IP6, pH 7.4, control 8 minutes): 28 min
- effect of adding IP6 to simulated cinacalcet and sevelamer ([6]; IP6 0-11.4 µM with constant simulated concentration of cinacalcet or sevelamer): clear synergistic effect
